Peptide text beside a SMILES is read from it.
Test system: Rattus norvegicus
Assay: Estrogen-like activity in ovariectomized SD rat assessed as increase in uterus weight at 2.5 mg/kg, sc administered daily for 14 days
Type: functional
Conditions: route subcutaneous

SMILES	Activity
CC(C)[C@@H]1NC(=O)CNC(=O)[C@H](C)NC(=O)[C@H](Cc2c[nH]c3ccccc23)NC(=O)[C@H](C)NC1=O [SEGETALIN B] (cyclo(AGVAW))	56.3 mg
N=C(N)NCCC[C@@H]1NC(=O)[C@H](Cc2ccc(O)cc2)NC(=O)CNC(=O)[C@H](CO)NC(=O)[C@H](Cc2ccccc2)NC1=O [SEGETALIN H] (cyclo(FSGYR))	54.8 mg
CC(C)[C@@H]1NC(=O)CNC(=O)[C@H](C)NC(=O)[C@H](Cc2ccc(O)cc2)NC(=O)[C@H](CCCCN)NC1=O [SEGETALIN G] (cyclo(AGVKY))	51.2 mg
CC(C)[C@@H]1NC(=O)[C@@H]2CCCN2C(=O)[C@H](C(C)C)NC(=O)CNC(=O)[C@H](C)NC(=O)[C@H](Cc2c[nH]c3ccccc23)NC1=O [SEGETALIN A] (cyclo(AGVPVW))	54.4 mg
